These results are taken from patent US11524968B2, “Heterocyclic compound as a protein kinase inhibitor” (HK inno.N Corporation, priority 2017, dated 2022).

Molecules are shown by their SMILES. Some results are limits rather than exact numbers.

For the assay, the target named is JAK1 (Homo sapiens (Human), UniProt P23458). The assay can be described thus: Analysis of JAK1 activity inhibition ability (ADP-Glo Kinase Assay). Format: biochemical. The following applies: JAK1 enzyme, ADP-Glo luminescence, ATP 250 uM, IRS-itide substrate, 30° C. 40 minutes; read-out: IC50. In outline:
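ADP-Glo luminescence read-out of ADP production, with IC50 taken as the concentration halving JAK1 activity relative to control. Enzyme was incubated 40 min at 30 °C with compound, IRS-itide (40 ng/mL) and ATP (250 uM), concentrations as prepared in pH 7.5 Tris-HCl/MgCl2/BSA/DTT buffer.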

JAK1, sequence (P23458 whole entry): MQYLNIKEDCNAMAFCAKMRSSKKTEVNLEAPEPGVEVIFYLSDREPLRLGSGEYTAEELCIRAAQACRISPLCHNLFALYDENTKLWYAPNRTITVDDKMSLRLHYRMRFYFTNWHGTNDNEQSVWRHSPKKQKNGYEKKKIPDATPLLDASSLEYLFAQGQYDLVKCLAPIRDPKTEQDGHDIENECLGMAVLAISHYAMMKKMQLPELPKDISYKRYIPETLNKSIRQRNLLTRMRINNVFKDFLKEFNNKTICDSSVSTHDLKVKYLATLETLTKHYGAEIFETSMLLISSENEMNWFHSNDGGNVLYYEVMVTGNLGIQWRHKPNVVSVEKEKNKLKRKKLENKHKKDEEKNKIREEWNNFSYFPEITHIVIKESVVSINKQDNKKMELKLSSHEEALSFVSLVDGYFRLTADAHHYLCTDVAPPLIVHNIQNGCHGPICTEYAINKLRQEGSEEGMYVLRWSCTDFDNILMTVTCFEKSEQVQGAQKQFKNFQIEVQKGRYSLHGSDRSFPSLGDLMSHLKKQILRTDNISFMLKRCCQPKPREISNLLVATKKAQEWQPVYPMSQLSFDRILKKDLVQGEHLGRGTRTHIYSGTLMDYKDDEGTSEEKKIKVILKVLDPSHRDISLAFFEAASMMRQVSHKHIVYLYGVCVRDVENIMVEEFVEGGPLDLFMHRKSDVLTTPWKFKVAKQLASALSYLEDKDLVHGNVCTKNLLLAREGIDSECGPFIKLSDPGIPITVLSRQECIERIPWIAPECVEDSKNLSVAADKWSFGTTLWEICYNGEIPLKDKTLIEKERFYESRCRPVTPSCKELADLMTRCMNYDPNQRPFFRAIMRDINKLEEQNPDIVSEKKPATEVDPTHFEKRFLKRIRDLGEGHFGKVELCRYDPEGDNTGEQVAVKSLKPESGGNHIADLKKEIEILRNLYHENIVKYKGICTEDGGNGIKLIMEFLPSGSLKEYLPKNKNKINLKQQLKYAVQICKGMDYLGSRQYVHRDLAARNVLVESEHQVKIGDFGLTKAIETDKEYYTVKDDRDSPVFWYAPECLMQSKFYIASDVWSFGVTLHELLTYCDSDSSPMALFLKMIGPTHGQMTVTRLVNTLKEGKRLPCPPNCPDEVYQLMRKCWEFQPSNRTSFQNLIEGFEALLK

Take `CC1CN(C(=O)c2ccncc2O)CC=C1c1cc(NC(=O)C2CC2)nc2[nH]ccc12` (stereo not drawn) [Example 377, N-(4-(1-(3-hydroxyisonicotinoyl)-3-methyl-1,2,3,6-tetrahydropyridin-4-yl)-1H-pyrrolo[2,3-b]pyridin-6-yl)cyclopropanecarboxamide]: the IC50 was over 0.2 µM.

`CC1CN(C(=O)c2cccc(F)c2F)CC=C1c1cc(NC(=O)C2CC2)nc2[nH]ccc12` (stereo not drawn) [Example 378, N-(4-(1-(2,3-difluorobenzoyl)-3-methyl-1,2,3,6-tetrahydropyridin-4-yl)-1H-pyrrolo[2,3-b]pyridin-6-yl)cyclopropanecarboxamide]: the IC50 was under 0.02 µM.

`Cc1cc(C(=O)N2CC=C(c3cc(NC(=O)C4CC4)nc4[nH]ccc34)C(C)C2)ccn1` (stereo not drawn) [Example 379, N-(4-(3-methyl-1-(2-methylisonicotinoyl)-1,2,3,6-tetrahydropyridin-4-yl)-1H-pyrrolo[2,3-b]pyridin-6-yl)cyclopropanecarboxamide]: the half-maximal inhibitory concentration (IC50) lay in the range of 0.02 to 0.2 µM.

Turning to `COc1ccc(C(=O)N2CC=C(c3cc(NC(=O)C4CC4)nc4[nH]ccc34)C(C)C2)cn1` (stereo not drawn) [Example 380, N-(4-(1-(6-methoxynicotinoyl)-3-methyl-1,2,3,6-tetrahydropyridin-4-yl)-1H-pyrrolo[2,3-b]pyridin-6-yl)cyclopropanecarboxamide], the IC50 fell in the range of 0.02 to 0.2 µM.

Turning to `CC1CN(C(=O)c2ccnc(N)c2)CC=C1c1cc(NC(=O)C2CC2)nc2[nH]ccc12` (stereo not drawn) [Example 381, N-(4-(1-(2-aminoisonicotinoyl)-3-methyl-1,2,3,6-tetrahydropyridin-4-yl)-1H-pyrrolo[2,3-b]pyridin-6-yl)cyclopropanecarboxamide], the 50% inhibitory concentration (IC50) is over 0.2 µM.

In the case of `CC1CN(C(=O)c2ccnc(Br)c2)CC=C1c1cc(NC(=O)C2CC2)nc2[nH]ccc12` (stereo not drawn) [Example 382, N-(4-(1-(2-bromoisonicotinoyl)-3-methyl-1,2,3,6-tetrahydropyridin-4-yl)-1H-pyrrolo[2,3-b]pyridin-6-yl)cyclopropanecarboxamide], the IC50 lay within 0.02 to 0.2 µM.

Turning to `CC1CN(C(=O)c2ccnc(O)c2)CC=C1c1cc(NC(=O)C2CC2)nc2[nH]ccc12` (stereo not drawn) [Example 383, N-(4-(1-(2-hydroxyisonicotinoyl)-3-methyl-1,2,3,6-tetrahydropyridin-4-yl)-1H-pyrrolo[2,3-b]pyridin-6-yl)cyclopropanecarboxamide], the IC50 is over 0.2 µM.

As for `CC1CN(C(=O)c2ccnc(C(F)(F)F)c2)CC=C1c1cc(NC(=O)C2CC2)nc2[nH]ccc12` (stereo not drawn) [Example 384, N-(4-(3-methyl-1-(2-(trifluoromethyl)isonicotinoyl)-1,2,3,6-tetrahydropyridin-4-yl)-1H-pyrrolo[2,3-b]pyridin-6-yl)cyclopropanecarboxamide], the IC50 lay within 0.02 to 0.2 µM.

`CC1(C)CC(c2cc(NC(=O)C3CC3)nc3[nH]ccc23)=CCN1C(=O)c1ccnc(F)c1` [Example 385, N-(4-(1-(2-fluoroisonicotinoyl)-2,2-dimethyl-1,2,3,6-tetrahydropyridin-4-yl)-1H-pyrrolo[2,3-b]pyridin-6-yl)cyclopropanecarboxamide]: the IC50 was under 0.02 µM.

As for `CC1(C)CC(c2cc(NC(=O)C3CC3)nc3[nH]ccc23)=CCN1C(=O)c1ccnc(Cl)c1` [Example 386, N-(4-(1-(2-chloroisonicotinoyl)-2,2-dimethyl-1,2,3,6-tetrahydropyridin-4-yl)-1H-pyrrolo[2,3-b]pyridin-6-yl)cyclopropanecarboxamide], the IC50 was in the range of 0.02 to 0.2 µM.

With `CC1(C)CC(c2cc(NC(=O)C3CC3)nc3[nH]ccc23)=CCN1C(=O)CC#N` [Example 387, N-(4-(1-(2-cyanoacetyl)-2,2-dimethyl-1,2,3,6-tetrahydropyridin-4-yl)-1H-pyrrolo[2,3-b]pyridin-6-yl)cyclopropanecarboxamide], the IC50 lay in the range of 0.02 to 0.2 µM.

Turning to `C[C@@H]1C=C(c2cc(NC(=O)C3CC3)nc3[nH]ccc23)CCN1C(=O)CC#N` [Example 388, (R)—N-(4-(1-(2-cyanoacetyl)-6-methyl-1,2,3,6-tetrahydropyridin-4-yl)-1H-pyrrolo[2,3-b]pyridin-6-yl)cyclopropanecarboxamide], the IC50 was under 0.02 µM.

As usually defined, the IC50 is the point on the concentration scale where inhibition reaches its midpoint.
